# Patent US9522909B2, “Thiazolidinedione derivatives, preparation thereof and use thereof in cancer treatment” (UNIVERSITE DE LORRAINE, priority 2012, dated 2016)
# Counter-ions that a name gives are not always drawn.
# What was measured:
# HCT116 = assay: Antiproliferative activity (MTS) on HCT116; assay type: cell-based; details: Homo sapiens, HCT-116; 10^-5 M, 72 hours, triplicate; read-out: percentage of inhibition of cell growth, HCT116
# Experimental: (§1) Antiproliferative activity was measured for different compounds according to the invention by analysis of cytoxicity at 10^−5M on diverse cancer cell lines in DMSO in triplicate. For certain molecules and certain lines, the same procedure was used for determining the IC50 values (the required concentration in μM for inhibiting by half the proliferation of the cells), by conducting cytotoxicity tests at concentrations from 0.005 μM to 100 μM in duplicate. The procedure is the following. The cells of the relevant line are sown in the suitable medium (see Table III) added with L-glutamine, with 10% (v/v) of fetal calf serum, 100 IU of penicillin, 100 μg/mL of streptomycin and 1.5 μg/mL of fungizone and maintained under 5% of CO2 at 37° C. 96-well plates are sown with the required number of cells per well (see Table III) in 200 μL of medium. 24 hours later, the chemical compounds to be investigated, dissolved in DMSO, are added and the media are maintained for 72 hours under these conditions with a set final concentration in DMSO (1%). The controls received an equal volume of DMSO. The number of viable cells is measured at 490 nm with the MTS reagent (Promega, Madison Wis.). The IC50s are calculated as the concentrations of compounds inducing 50% inhibition of cell proliferation.
# (§2) Tables IV and V below indicate the percentage of inhibition of cell growth, i.e. the percentage of dead cells after treatment with a compound dose of 10^−5 M. The tests were conducted in triplicate.
# LNCaP = assay: Antiproliferative activity (MTS) on LNCaP; assay type: cell-based; details: Homo sapiens, 72 hours; for inhibition at 10 µM: 10^-5 M, triplicate, read-out: percentage of inhibition of cell growth, LNCaP; for IC50: averages of two independent values
# Experimental: as §1, §2
# MDA231 = assay: Antiproliferative activity (MTS) on MDA231; assay type: cell-based, human; details: for inhibition at 10 µM / IC50: Homo sapiens, MDA-MB-231, 72 hours; for inhibition at 10 µM: 10^-5 M, triplicate, read-out: percentage of inhibition of cell growth, MDA231; for IC50: averages of two independent values
# Experimental: as §1, §2
# PC3 = assay: Antiproliferative activity (MTS) on PC3; assay type: cell-based; details: Homo sapiens, PC-3; 10^-5 M, 72 hours, triplicate; read-out: percentage of inhibition of cell growth, PC3
# Experimental: as §1, §2
# HepG2 = assay: Antiproliferative activity (MTS) on HepG2; assay type: cell-based; details: Homo sapiens, 72 hours; for inhibition at 10 µM: 10^-5 M, triplicate, read-out: percentage of inhibition of cell growth, HepG2; for IC50: averages of two independent values
# Experimental: as §1, §2
# Mia-PaCa = assay: Antiproliferative activity (MTS) on Mia-PaCa; assay type: cell-based; details: Homo sapiens, MIA PaCa-2, 72 hours; for inhibition at 10 µM: 10^-5 M, triplicate, read-out: percentage of inhibition of cell growth, Mia-PaCa; for IC50: averages of two independent values
# Experimental: as §1, §2
# [1] = tested on: cryopreserved human hepatocytes (primary culture); assay: Hepatocyte viability (MTT test) on suspended cryopreserved human hepatocytes; assay type: cell-based; details: 90 minutes incubation, relative to non treated cells
# Experimental: The hepatocyte viability corresponds to the percentage of surviving suspended human hepatocytes after 90 minutes of incubation with the compounds of the invention present at a concentration of […].
# Hepatocyte viability was measured for different compounds according to the invention with cryopreserved human hepatocytes (primary culture) suspended and distributed in 96-well plates with a density of 0.1×10^6 cells per well, in a […] culture medium per well (DMEM+gentamycin (50 mg/L)+insulin (4 mg/L)+dexamethasone (1 μM)) in a CO2/air (5%/95%) humidified atmosphere at 37° C. After 30 minutes for attaining equilibrium, […] of culture medium containing the tested compounds (dissolved in DMSO) or of medium only containing DMSO (final concentration of 0.1%) were added with stirring at 900 rpm.
# Cytotoxicity is evaluated with an MTT (Thiazolyl Blue Tetrazolium Bromide) test. The tested compounds or the DMSO are left to incubate for 90 minutes, and then 10 μL of MTT at 10 mg/10 mL are added per well for 30 mins. Next, the plates are centrifuged for 10 minutes at 2,000 g, the MTT is removed and some DMSO is added in an amount of 100 μL per well. The plates are gently shaked and then absorbance is measured at 595 nm by means of a spectrophotometric reader of micro-plates. The hepatocyte viability measured here corresponds to the percentage of surviving hepatocytes after 90 minutes of incubation with the compounds tested at a concentration of 100 μM, relatively to non treated cells.
# The same tests were conducted for a concentration of compounds at 200 μM.
# The tests were conducted in two distinct campaigns. In both cases, troglitazone (K) was used as a reference molecule.
# MDA435 = assay: Antiproliferative activity (MTS) on MDA435; assay type: cell-based; details: Homo sapiens, 10^-5 M, 72 hours, triplicate, read-out: percentage of inhibition of cell growth, MDA435
# Experimental: as §1, §2
# MCF7 = assay: Antiproliferative activity (MTS) on MCF7; assay type: cell-based, human; details: for inhibition at 10 µM / IC50: Homo sapiens, MCF7, 72 hours; for inhibition at 10 µM: 10^-5 M, triplicate, read-out: percentage of inhibition of cell growth, MCF7; for IC50: averages of two independent values
# Experimental: as §1, §2
structure (smiles),measurement,setting,value
"CC1(CN2C(=O)S/C(=C\c3cc(Br)c(O)c(Br)c3)C2=O)CCCCC1 [L, reference compound]",inhibition at 10 µM,HCT116,87%
same,inhibition at 10 µM,LNCaP,81%
same,IC50,LNCaP,1.8 µM
same,inhibition at 10 µM,MDA231,53%
same,IC50,MDA231,5.7 µM
same,inhibition at 10 µM,PC3,47%
same,inhibition at 10 µM,HepG2,74%
same,IC50,HepG2,8.8 µM
same,inhibition at 10 µM,Mia-PaCa,65%
same,IC50,Mia-PaCa,8.1 µM
same,Hepatocyte viability % (100 μM),[1]; Table I campaign,42%
same,Hepatocyte viability % (200 μM),[1]; Table I campaign,30%
same,inhibition at 10 µM,MDA435,69%
same,inhibition at 10 µM,MCF7,76%
same,IC50,MCF7,9.3 µM
"CCN(CC)c1ccc2c(-c3ccc(NC(=S)NCCCCCCc4c(C)c(C)c5c(c4C)CCC(C)(COc4ccc(/C=C6\SC(=O)NC6=O)cc4)O5)cc3C(=O)O)c3ccc(=[N+](CC)CC)cc-3oc2c1 (racemic) [Compound Q, (±) (9-{2-carboxy-4-[3-(6-{2-[4-(2,4-dioxo-thiazolidin-5-ylidenemethyl)-phenoxy-methyl]-2,5,7,8-tetramethyl-chroman-6-yl}-hexyl)-thioureido]-phenyl}-6-diethylamino-xanthen-3-ylidene)-diethyl-ammonium]",inhibition at 10 µM,HCT116,80%
same,inhibition at 10 µM,LNCaP,67%
same,inhibition at 10 µM,MDA231,71%
same,inhibition at 10 µM,PC3,60%
same,inhibition at 10 µM,HepG2,75%
same,inhibition at 10 µM,Mia-PaCa,70%
same,inhibition at 10 µM,MDA435,59%
same,inhibition at 10 µM,MCF7,59%
"Cc1c(C)c2c(c(C)c1O)CCC(C)(CN1C(=O)S/C(=C\c3ccc(O)cc3)C1=O)O2 (racemic) [H, (±) 5-(4-hydroxy-benzylidene)-3-(6-hydroxy-2,5,7,8-tetramethyl-chroman-2-ylmethyl)-thiazolidine-2,4-dione]",inhibition at 10 µM,HCT116,95%
same,inhibition at 10 µM,LNCaP,51%
same,IC50,LNCaP,6.1 µM
same,inhibition at 10 µM,MDA231,95%
same,IC50,MDA231,1.9 µM
same,inhibition at 10 µM,PC3,64%
same,inhibition at 10 µM,HepG2,79%
same,IC50,HepG2,5.7 µM
same,inhibition at 10 µM,Mia-PaCa,102%
same,IC50,Mia-PaCa,1.3 µM
same,Hepatocyte viability % (100 μM),[1]; Table II campaign,110%
same,Hepatocyte viability % (200 μM),[1]; Table II campaign,103%
same,inhibition at 10 µM,MDA435,87%
same,inhibition at 10 µM,MCF7,95%
same,IC50,MCF7,3.4 µM
"Cc1c(C)c2c(c(C)c1OC(=O)OC(C)(C)C)CCC(C)(COc1ccc(C=C3SC(=O)N(C)C3=O)cc1)O2 (racemic) [F, (±) tertiobutyl(2,5,7,8-tetramethyl-2-[4-(3-methyl-2,4-dioxo-thiazolidin-5-ylidenemethyl)-phenoxymethyl]-chroman-6-yl)carbonate]",Hepatocyte viability % (100 μM),[1]; Table II campaign,81%
same,Hepatocyte viability % (200 μM),[1]; Table II campaign,66%
"Cc1c(C)c2c(c(C)c1CCCCCCNC(=O)OC(C)(C)C)CCC(C)(COc1ccc(/C=C3\SC(=O)NC3=O)cc1)O2 (racemic) [C, (±) Tert-butyl(6-{2-[4-(2,4-dioxo-thiazolidin-5-ylidenemethyl)-phenoxymethyl]-2,5,7,8-tetramethyl-chroman-6-yl}-hexyl)-carbamate]",inhibition at 10 µM,HCT116,55%
same,inhibition at 10 µM,LNCaP,68%
same,IC50,LNCaP,6.4 µM
same,inhibition at 10 µM,MDA231,51%
same,IC50,MDA231,2.1 µM
same,inhibition at 10 µM,PC3,26%
same,inhibition at 10 µM,HepG2,77%
same,IC50,HepG2,2.4 µM
same,inhibition at 10 µM,Mia-PaCa,30%
same,IC50,Mia-PaCa,8.8 µM
same,Hepatocyte viability % (100 μM),[1]; Table I campaign,85%
same,Hepatocyte viability % (200 μM),[1]; Table I campaign,80%
same,inhibition at 10 µM,MDA435,39%
same,inhibition at 10 µM,MCF7,24%
same,IC50,MCF7,9.6 µM
Cc1c(C)c2c(c(C)c1O)CCC(C)(COc1ccc(/C=C3\SC(=O)N(Cc4ccccc4)C3=O)cc1)O2 (stereo not drawn) [G],Hepatocyte viability % (100 μM),[1]; Table II campaign,87%
same,Hepatocyte viability % (200 μM),[1]; Table II campaign,63%
"Cc1c(C)c2c(c(C)c1O)CCC(C)(COc1ccc(CC3SC(=O)NC3=O)cc1)O2 (stereo not drawn) [K, troglitazone, reference compound]",inhibition at 10 µM,HCT116,9%
same,inhibition at 10 µM,LNCaP,17%
same,inhibition at 10 µM,MDA231,12%
same,inhibition at 10 µM,PC3,14%
same,inhibition at 10 µM,HepG2,14%
same,inhibition at 10 µM,Mia-PaCa,2%
same,Hepatocyte viability % (100 μM),[1]; Table I campaign,79%
same,Hepatocyte viability % (100 μM),[1]; Table II campaign,52%
same,Hepatocyte viability % (200 μM),[1]; Table I campaign,30%
same,Hepatocyte viability % (200 μM),[1]; Table II campaign,22%
same,inhibition at 10 µM,MDA435,12%
same,inhibition at 10 µM,MCF7,3%
"O=C1S/C(=C\c2ccc(O)cc2)C(=O)N1C/C=C/c1ccccc1 [Compound A, 5-(4-hydroxy-benzylidene)-3-(3-phenyl-allyl)-thiazolidine-2,4-dione]",inhibition at 10 µM,HCT116,83%
same,inhibition at 10 µM,LNCaP,37%
same,IC50,LNCaP,19.4 µM
same,inhibition at 10 µM,MDA231,91%
same,IC50,MDA231,2.2 µM
same,inhibition at 10 µM,PC3,43%
same,inhibition at 10 µM,HepG2,59%
same,IC50,HepG2,10.1 µM
same,inhibition at 10 µM,Mia-PaCa,84%
same,IC50,Mia-PaCa,4.8 µM
same,Hepatocyte viability % (100 μM),[1]; Table I campaign,89%
same,Hepatocyte viability % (200 μM),[1]; Table I campaign,63%
same,inhibition at 10 µM,MDA435,82%
same,inhibition at 10 µM,MCF7,65%
same,IC50,MCF7,5.2 µM
"Cc1c(C)c2c(c(C)c1O)CCC(C)(COc1ccc(/C=C3\SC(=O)N(C)C3=O)cc1)O2 (racemic) [J, (±) 5-[4-(6-Hydroxy-2,5,7,8-tetramethyl-chroman-2-ylmethoxy)-benzylidene]-3-methyl-thiazolidine-2,4-dione]",inhibition at 10 µM,HCT116,32%
same,inhibition at 10 µM,LNCaP,33%
same,IC50,LNCaP,17.4 µM
same,"activity on non-hormono-dependent breast cancer cells (MDA-231), in words",MDA231,active
same,inhibition at 10 µM,MDA231,36%
same,IC50,MDA231,4.9 µM
same,inhibition at 10 µM,PC3,14%
same,inhibition at 10 µM,HepG2,40%
same,IC50,HepG2,20.4 µM
same,inhibition at 10 µM,Mia-PaCa,20%
same,IC50,Mia-PaCa,24.5 µM
same,Hepatocyte viability % (100 μM),[1]; Table II campaign,120%
same,Hepatocyte viability % (200 μM),[1]; Table II campaign,120%
same,inhibition at 10 µM,MDA435,5%
same,"activity on hormono-dependent breast cancer cells (MCF-7), in words",MCF7,inactive
same,inhibition at 10 µM,MCF7,0%
same,IC50,MCF7,52.6 µM
"Cc1c(C)c2c(c(C)c1OC(=O)CCCCCCCN)CCC(C)(COc1ccc(/C=C3\SC(=O)N(C)C3=O)cc1)O2 (racemic) [Compound B, (±) 8-amino {2,5,7,8-tetramethyl-2-[4-(3-methyl-2,4-dioxo-thiazolidin-5-ylidenemethyl)-phenoxymethyl]-chroman-6-yl}octanoate trifluoroacetate]",inhibition at 10 µM,HCT116,99%
same,inhibition at 10 µM,LNCaP,91%
same,IC50,LNCaP,1 µM
same,inhibition at 10 µM,MDA231,101%
same,IC50,MDA231,0.2 µM
same,inhibition at 10 µM,PC3,98%
same,inhibition at 10 µM,HepG2,92%
same,IC50,HepG2,1 µM
same,inhibition at 10 µM,Mia-PaCa,101%
same,IC50,Mia-PaCa,0.6 µM
same,inhibition at 10 µM,MDA435,100%
same,inhibition at 10 µM,MCF7,101%
same,IC50,MCF7,0.9 µM
